The record followed here is ChEMBL document CHEMBL1201862, “PubChem BioAssay data set” (2004).

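48-hour exposure; five concentrations; linearly interpolated endpoints. GI50 marks 50% less growth.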 Calls of active or inactive are those of the source. No stated cut-off is given here; in the data, active = GI50 up to about 1.1 µM and inactive = higher. Where a SMILES comes first, the peptide text is derived from it. [ ]: non-standard residue; d: D form. Phe(F5) = N[CH](Cc1c(F)c(F)c(F)c(F)c1F)C(=O)O Where only a bound is given, the exact number is not on record here.

Some test systems named below: A498; RXF 393; OVCAR-5; SF-268; SF-539; HOP-62; T47D; DU-145; SK-OV-3; M14; NCI/ADR-RES; 786-0; OVCAR-3; HCT-15; EKVX; PC-3; SF-295; OVCAR-4; Malme-3M.
Common to all, as to assay: NCI anticancer screen, dose series, 48 h

Turning to `O=C(Nc1ccccc1C(=O)NCc1ccccc1)/C(=C/c1ccccc1O)NC(=O)c1ccccc1`, the GI50 in the experiment with A498 is > 100 µM (inactive); with RXF 393, 48.9 µM (inactive); with OVCAR-5 it was > 100 µM (inactive); with SF-268 it was 54.1 µM (inactive); in the experiment with SF-539, > 100 µM (inactive); in the experiment with HOP-62, 27.1 µM (inactive). Also, the GI50 in the experiment with T47D is 19.5 µM (inactive); in the experiment on DU-145, > 100 µM (inactive); in the experiment with SK-OV-3 it was 48.9 µM (inactive); in the experiment on M14, > 100 µM (inactive); in the experiment with NCI/ADR-RES, 88.5 µM (inactive); with 786-0 it was 66.4 µM (inactive). Moreover, the GI50 is > 100 µM (inactive) in the experiment on OVCAR-3; 24.7 µM with HCT-15; > 100 µM (inactive) in the experiment on EKVX; > 100 µM (inactive) in the experiment on PC-3; 49.9 µM (inactive) in the experiment with SF-295.
On to `CC1=C2C(=O)c3ccccc3C(=O)[C@H]2C[C@@H](N2CCCC2=O)O1`, for which the GI50 in the experiment on A498 was 54.8 µM (inactive); in the experiment with OVCAR-4, 20.2 µM (inactive); in the experiment with RXF 393, 23.7 µM (inactive); with OVCAR-5, 19.4 µM (inactive); in the experiment with Malme-3M it was 17.4 µM (inactive); in the experiment on SF-268, 48.1 µM (inactive). The GI50 is 25.5 µM (inactive) with SF-539; 39.6 µM (inactive) in the experiment with HOP-62; 22.8 µM (inactive) in the experiment with T47D; 26.9 µM (inactive) in the experiment with DU-145; > 100 µM (inactive) in the experiment with SK-OV-3; 14.7 µM (inactive) in the experiment on M14. Moreover, the GI50 with NCI/ADR-RES was 28.4 µM (inactive); with 786-0, 25.2 µM (inactive); in the experiment with OVCAR-3 it was 26.5 µM (inactive); with HCT-15, 49.2 µM; in the experiment with EKVX, 76.4 µM (inactive); in the experiment on PC-3, > 100 µM (inactive). In addition, the GI50 with SF-295 is 66.8 µM (inactive).
Consider `O=C(O)CCC(=O)c1ccc2c(c1)C(C(=O)O)CC2` (stereo not given), for which the GI50 in the experiment with A498 is > 100 µM (inactive); in the experiment with OVCAR-4, > 100 µM (inactive); in the experiment on RXF 393, 0.286 µM (active); with OVCAR-5 it was > 100 µM (inactive); with Malme-3M it was > 100 µM (inactive); with SF-268 it was > 100 µM (inactive). Besides, the GI50 in the experiment on SF-539, in the experiment on HOP-62, in the experiment with T47D, with DU-145, in the experiment on SK-OV-3 and in the experiment on M14 was > 100 µM (inactive) throughout. Further, the GI50 is > 100 µM (inactive) in the experiment with NCI/ADR-RES; > 100 µM (inactive) in the experiment with 786-0; > 100 µM (inactive) in the experiment on OVCAR-3; more than 100 µM with HCT-15; > 100 µM (inactive) in the experiment with EKVX; > 100 µM (inactive) in the experiment with PC-3. Further, the GI50 with SF-295 is > 100 µM (inactive).
Turning to `COc1ccc(C(=O)Sc2c(-c3ccccc3)c(=O)n(-c3ccccc3)c(=S)n2-c2ccccc2)cc1`, the GI50 with A498 is 15.4 µM (inactive); with OVCAR-4 it was 44.4 µM (inactive); in the experiment on RXF 393, 24.1 µM (inactive); in the experiment with OVCAR-5 it was > 100 µM (inactive); in the experiment with Malme-3M, 48.5 µM (inactive); with SF-268, 67.5 µM (inactive). Moreover, the GI50 in the experiment with SF-539 is 14.2 µM (inactive); in the experiment on HOP-62 it was 34.5 µM (inactive); in the experiment on T47D it was > 100 µM (inactive); with DU-145, > 100 µM (inactive); in the experiment with SK-OV-3 it was > 100 µM (inactive); in the experiment on M14 it was 68.7 µM (inactive). The GI50 in the experiment on NCI/ADR-RES is > 100 µM (inactive); in the experiment on 786-0, 33.7 µM (inactive); in the experiment with OVCAR-3 it was 30.5 µM (inactive); in the experiment with HCT-15, more than 100 µM; with EKVX, > 100 µM (inactive); in the experiment on PC-3, 5.16 µM (inactive). In addition, the GI50 in the experiment on SF-295 is > 100 µM (inactive).
With `COC(=O)C(CC(C)C)NC(=O)C(Cc1c[nH]cn1)NC(=O)CNC(=O)C(NC(=O)C(C)NC(=O)C(Cc1c[nH]c2ccccc12)NC(=O)C(CCC(=O)O)NC(=O)C(N)Cc1c(F)c(F)c(F)c(F)c1F)C(C)C` (stereo not given) (H-[Phe(F5)]EWAVGHL-OMe; configuration not given here), the GI50 in the experiment with A498, with OVCAR-4, with RXF 393, with OVCAR-5, in the experiment with Malme-3M and in the experiment on SF-268 was > 12.5 µM (inactive) throughout. Further, the GI50 with SF-539, in the experiment on HOP-62, in the experiment on T47D, with DU-145, with SK-OV-3 and in the experiment with M14 was > 12.5 µM (inactive) throughout. In addition, the GI50 in the experiment on NCI/ADR-RES was > 12.5 µM (inactive); in the experiment with 786-0, > 12.5 µM (inactive); in the experiment on OVCAR-3 it was > 12.5 µM (inactive); in the experiment on HCT-15, more than 12.5 µM; with EKVX, > 12.5 µM (inactive); in the experiment on PC-3 it was > 12.5 µM (inactive). Moreover, in the experiment on SF-295, the GI50 was > 12.5 µM (inactive).
Regarding `O=S1(=O)OCCOS(=O)(=O)C1(F)Cc1ccccc1`, the GI50 in the experiment with A498, in the experiment with OVCAR-4, in the experiment with RXF 393, in the experiment on OVCAR-5, in the experiment with Malme-3M and in the experiment on SF-268 was > 100 µM (inactive) in each case. Also, the GI50 in the experiment with SF-539, with HOP-62, with T47D, in the experiment with DU-145, in the experiment with SK-OV-3 and with M14 was > 100 µM (inactive) each time. Also, the GI50 was > 100 µM (inactive) with NCI/ADR-RES; > 100 µM (inactive) with 786-0; > 100 µM (inactive) in the experiment on OVCAR-3; more than 100 µM with HCT-15; > 100 µM (inactive) in the experiment with EKVX; > 100 µM (inactive) with PC-3. Further, the GI50 in the experiment with SF-295 is > 100 µM (inactive).
As for `CCC(C)C1=C(OC(C)=O)[N+]2([O-])Oc3ccc(-c4c(OC(C)=O)c(OC(C)=O)c(-c5ccc(OC(C)=O)cc5)c(OC(C)=O)c4OC(C)=O)cc3OC2(C(C)CC)C(=O)N1OC(C)=O` (stereo not given), the GI50 is > 50 µM (inactive) in the experiment on A498; 16.5 µM (inactive) in the experiment on OVCAR-4; 29.6 µM (inactive) in the experiment with RXF 393; 24 µM (inactive) in the experiment with OVCAR-5; 18.7 µM (inactive) in the experiment with Malme-3M; 12.4 µM (inactive) with SF-268. In addition, the GI50 in the experiment with SF-539 is 42.3 µM (inactive); in the experiment with T47D, 10.9 µM (inactive); in the experiment with DU-145, 19.3 µM (inactive); in the experiment on SK-OV-3, 43 µM (inactive); with M14 it was 20.1 µM (inactive); with NCI/ADR-RES, > 50 µM (inactive). Further, the GI50 in the experiment on 786-0 is 10.5 µM (inactive); in the experiment with OVCAR-3 it was 11.4 µM (inactive); in the experiment with HCT-15, 22.5 µM; with EKVX, 16.1 µM (inactive); with PC-3 it was 22.5 µM (inactive); in the experiment with SF-295, 8.69 µM (inactive).
